Source: patent US8163724B2, “Glucocorticosteroids, processes for their preparation, pharmaceutical compositions containing them and their use in therapy” (AstraZeneca AB, priority 2007, dated 2012)
Read-outs that look alike come from different tables or passages of the source.

Biological target: T1, recombinant human GR (Homo sapiens, UniProt P04150)
T1 construct: purchased Panvera/Invitrogen P2812 (kit P2893)
T1 sequence (P04150 1-777): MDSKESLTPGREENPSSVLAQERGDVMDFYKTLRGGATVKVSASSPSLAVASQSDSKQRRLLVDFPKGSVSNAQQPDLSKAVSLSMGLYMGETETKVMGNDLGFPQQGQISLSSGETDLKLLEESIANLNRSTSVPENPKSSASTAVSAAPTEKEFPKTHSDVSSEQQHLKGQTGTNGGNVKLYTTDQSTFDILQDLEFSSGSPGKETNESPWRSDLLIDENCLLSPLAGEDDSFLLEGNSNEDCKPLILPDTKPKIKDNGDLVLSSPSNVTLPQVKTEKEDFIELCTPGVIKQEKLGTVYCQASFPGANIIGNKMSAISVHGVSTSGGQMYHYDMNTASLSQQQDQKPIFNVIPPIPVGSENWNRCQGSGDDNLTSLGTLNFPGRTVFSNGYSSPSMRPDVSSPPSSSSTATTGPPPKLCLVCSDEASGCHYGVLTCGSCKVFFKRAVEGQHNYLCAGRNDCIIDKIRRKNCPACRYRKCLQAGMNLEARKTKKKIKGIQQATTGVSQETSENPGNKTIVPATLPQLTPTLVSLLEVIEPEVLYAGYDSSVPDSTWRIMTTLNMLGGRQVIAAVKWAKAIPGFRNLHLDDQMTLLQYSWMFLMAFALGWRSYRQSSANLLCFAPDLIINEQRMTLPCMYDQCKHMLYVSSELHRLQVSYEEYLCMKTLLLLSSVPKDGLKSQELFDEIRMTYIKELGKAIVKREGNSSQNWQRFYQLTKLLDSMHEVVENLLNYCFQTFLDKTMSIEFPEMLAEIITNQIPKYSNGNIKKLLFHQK
Assay: Human Glucocorticoid Receptor (GR) Assay (fluorescence polarization, Panvera/Invitrogen kit)
Assay type: binding
In short: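 Fluorescence polarization competition with recombinant GR and GS Red fluorescent ligand plus stabilizing peptide and DTT in potassium phosphate/sodium molybdate/EDTA buffer with DMSO. Incubated 2 hours at room temperature in the dark; 0% control DMSO, 100% control 10 μM dexamethasone.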

[1] = fluorescence polarization, GS Red tracer, 2 hours at room temperature, 100% control 10 μM Dexamethasone, read-out: Inhibition of GR binding, IC50

Row | SMILES | IC50 [1] [nM] | IC50 [nM]
1 | C[C@]12Cc3cnn(-c4ccc(F)cc4)c3C=C1CC[C@@H]1[C@@H]2[C@@H](O)C[C@@]2(C)[C@H]1CC[C@]2(OC(=O)c1ccoc1)C(=O)SCCO [Example 52, (1R,3aS,3bS,10aR,10bS,11S,12aS)-7-(4-Fluorophenyl)-11-hydroxy-1-{[(2-hydroxy-ethyl)thio]carbonyl}-10a,12a-dimethyl-1,2,3,3a,3b,4,5,7,10,10a,10b,11,12,12a-tetradecahydrocyclopenta[5,6]naphtho[1,2-f]indazol-1-yl furan-3-carboxylate] | 6.4 | –
2 | Cc1occc1C(=O)O[C@]1(C(=O)SCC#N)CC[C@H]2[C@@H]3CCC4=Cc5c(cnn5-c5ccc(F)cc5)C[C@]4(C)[C@H]3[C@@H](O)C[C@@]21C [Example 53, (1R,3aS,3bS,10aR,10bS,11S,12aS)-1-{[(Cyanomethyl)sulfanyl]carbonyl}-7-(4-fluoro-phenyl)-11-hydroxy-10a,12a-dimethyl-1,2,3,3a,3b,4,5,7,10,10a,10b,11,12,12a-tetradecahydrocyclopenta[5,6]naphtho[1,2-f]indazol-1-yl 2-methylfuran-3-carboxylate] | 9 | –
3 | Cc1occc1C(=O)O[C@]1(C(=O)SCF)CC[C@H]2[C@@H]3CCC4=Cc5c(cnn5-c5ccc(F)cc5)C[C@]4(C)[C@H]3[C@@H](O)C[C@@]21C [Example 54, (1R,3aS,3bS,10aR,10bS,11S,12aS)-1-{[(Fluoromethyl)thio]carbonyl}-7-(4-fluorophenyl)-11-hydroxy-10a,12a-dimethyl-1,2,3,3a,3b,4,5,7,10,10a,10b,11,12,12a-tetradecahydropcyclopenta[5,6]naphtho[1,2]-indazol-1-yl 2-methylfuran-3-carboxylate] | 7.3 | –
4 | Cc1occc1C(=O)O[C@]1(C(=O)SCCO)CC[C@H]2[C@@H]3CCC4=Cc5c(cnn5-c5ccc(F)cc5)C[C@]4(C)[C@H]3[C@@H](O)C[C@@]21C [Example 55, (1R,3aS,3bS,10aR,10bS,11S,12aS)-7-(4-Fluorophenyl)-11-hydroxy-1-{[(2-hydroxy-ethyl)thio]carbonyl}-10a,12a-dimethyl-1,2,3,3a,3b,4,5,7,10,10a,10b,11,12,12a-tetradecahydrocyclopenta[5,6]naphtho[1,2-f]indazol-1-yl 2-methylfuran-3-carboxylate] | – | 7
5 | Cc1ccoc1C(=O)O[C@]1(C(=O)SCC#N)CC[C@H]2[C@@H]3CCC4=Cc5c(cnn5-c5ccc(F)cc5)C[C@]4(C)[C@H]3[C@@H](O)C[C@@]21C [Example 56, (1R,3aS,3bS,10aR,10bS,11S,12aS)-1-{[(Cyanomethyl)thio]carbonyl}-7-(4-fluorophenyl)-11-hydroxy-10a,12a-dimethyl-1,2,3,3a,3b,4,5,7,10,10a,10b,11,12,12a-tetradecahydropcyclopenta[5,6]naphtho[1,2-f]indazol-1-yl 3-methylfuran-2-carboxylate] | 6.5 | –
6 | Cc1ccoc1C(=O)O[C@]1(C(=O)SCF)CC[C@H]2[C@@H]3CCC4=Cc5c(cnn5-c5ccc(F)cc5)C[C@]4(C)[C@H]3[C@@H](O)C[C@@]21C [Example 57, (1R,3aS,3bS,10aR,10bS,11S,12aS)-1-{[(Fluoromethyl)thio]carbonyl}-7-(4-fluorophenyl)-11-hydroxy-10a,12a-dimethyl-1,2,3,3a,3b,4,5,7,10,10a,10b,11,12,12a-tetradecaphydrocyclopenta[5,6]naphtho[1,2-f]indazol-1-yl 3-methylfuran-2-carboxylate] | 3.8 | –
7 | Cc1ccoc1C(=O)O[C@]1(C(=O)SCCO)CC[C@H]2[C@@H]3CCC4=Cc5c(cnn5-c5ccc(F)cc5)C[C@]4(C)[C@H]3[C@@H](O)C[C@@]21C [Example 58, (1R,3aS,3bS,10aR,10bS,11S,12aS)-7-(4-Fluorophenyl)-11-hydroxy-1-{[(2-hydroxy-ethyl)thio]carbonyl}-10a,12a-dimethyl-1,2,3,3a,3b,4,5,7,10,10a,10b,11,12,12a-tetradecahydrocyclopenta[5,6]naphtho[1,2-f]indazol-1-yl 3-methylfuran-2-carboxylate] | 5.5 | –
8 | C[C@]12Cc3cnn(-c4ccc(F)cc4)c3C=C1CC[C@@H]1[C@@H]2[C@@H](O)C[C@@]2(C)[C@H]1CC[C@]2(OC(=O)c1ccno1)C(=O)SCC#N [Example 59, (1R,3aS,3bS,10aR,10bS,11S,12aS)-1-{[(Cyanomethyl)thio]carbonyl}-7-(4-fluorophenyl)-11-hydroxy-10a,12a-dimethyl-1,2,3,3a,3b,4,5,7,10,10a,10b,11,12,12a-tetradecahydropcyclopenta[5,6]naphtho[1,2-f]indazol-1-yl isoxazole-5-carboxylate] | 3.9 | –
9 | C[C@]12Cc3cnn(-c4ccc(F)cc4)c3C=C1CC[C@@H]1[C@@H]2[C@@H](O)C[C@@]2(C)[C@H]1CC[C@]2(OC(=O)c1ccno1)C(=O)SCF [Example 60, (1R,3aS,3bS,10aR,10bS,11S,12aS)-1-{[(Fluoromethyl)thio]carbonyl}-7-(4-fluorophenyl)-11-hydroxy-10a,12a-dimethyl-1,2,3,3a,3b,4,5,7,10,10a,10b,11,12,12a-tetradecahydropcyclopenta[5,6]naphtho[1,2]-indazol-1-yl isoxazole-5-carboxylate] | 4.5 | –
10 | C[C@]12Cc3cnn(-c4ccc(F)cc4)c3C=C1CC[C@@H]1[C@@H]2[C@@H](O)C[C@@]2(C)[C@H]1CC[C@]2(OC(=O)c1ccno1)C(=O)SCCO [Example 61, (1R,3aS,3bS,10aR,10bS,11S,12aS)-7-(4-Fluorophenyl)-11-hydroxy-1-{[(2-hydroxy-ethyl)thio]carbonyl}-10a,12a-dimethyl-1,2,3,3a,3b,4,5,7,10,10a,10b. 1,12,12a-tetradecahydrocyclopenta[5,6]naphtho[1,2-f]indazol-1-yl isoxazole-5-carboxylate] | 8.3 | –
11 | COCCC(=O)O[C@]1(C(=O)SCC#N)CC[C@H]2[C@@H]3CCC4=Cc5c(cnn5-c5ccc(F)cc5)C[C@]4(C)[C@H]3[C@@H](O)C[C@@]21C [Example 62, (1R,3aS,3bS,10aR,10bS,11S,12aS)-1-{[(Cyanomethyl)thio]carbonyl}-7-(4-fluorophenyl)-11-hydroxy-10a,12a-dimethyl-1,2,3,3a,3b,4,5,7,10,10a,10b,11,12,12a-tetradecahydrocyclopenta[5,6]naphtho[1,2-f]indazol-1-yl 3-methoxypropanoate] | 2.2 | –
12 | COCCC(=O)O[C@]1(C(=O)SCF)CC[C@H]2[C@@H]3CCC4=Cc5c(cnn5-c5ccc(F)cc5)C[C@]4(C)[C@H]3[C@@H](O)C[C@@]21C [Example 63, (1R,3aS,3bS,10aR,10bS,11S,12aS)-1-{[(Fluoromethyl)thio]carbonyl}-7-(4-fluorophenyl)-11-hydroxy-10a,12a-dimethyl-1,2,3,3a,3b,4,5,7,10,10a,10b,11,12,12a-tetradecahydropcyclopenta[5,6]naphtho[1,2-f]indazol-1-yl 3-methoxypropanoate] | 3.3 | –
13 | CSC(=O)[C@@]1(OC(=O)c2ccco2)CC[C@H]2[C@@H]3CCC4=Cc5c(cnn5-c5ccc(F)cc5)C[C@]4(C)[C@H]3[C@@H](O)C[C@@]21C [Example 64, (1R,3aS,3bS,10aR,10bS,11S,12aS)-7-(4-Fluorophenyl)-11-hydroxy-10a,12a-dimethyl-1-[(methylthio)carbonyl]-1,2,3,3a,3b,4,5,7,10,10a,10b,11,12,12a-tetradecahydropcyclopenta[5,6]naphtho[1,2-f]indazol-1-yl furan-2-carboxylate] | 5.8 | –
